The record followed here is patent US6989387B2, “Nitro and amino substituted topoisomerase agents” (Rutgers, The State University of New Jersey, priority 2002, dated 2006).

The subject of one data set is RPMI8402 cells. In words: Test B: MTT-microtiter plate tetrazolinium cytotoxicity assay, RPMI8402. In kind it is cell-based, human. The following applies: RPMI 8402, 96 h, read-out: Cytotoxicity (IC50; μM) RPMI8402. The procedure:
(§1) The cytotoxicity was determined using the MTT-microtiter plate tetrazolinium cytotoxicity assay (MTA—See Mosmann, T., J. Immunol. Methods 1983, 65, 55–63; Carmichael, J., et al., Cancer Res. 1987, 47, 936–942; and Denizot, F., et al., J. Immunol. Methods 1986, 89, 271–277). […] The cytotoxicity assay was performed using 96-well microtiter plates. Cells were grown in suspension at 37° C. in 5% CO2 and maintained by regular passage in RPMI medium supplemented with 10% heat- inactivated fetal bovine serum, L-glutamine (2 mM), penicillin (100 U/mL), and streptomycin (0.1 mg/mL). […] For determination of IC50, cells were exposed continuously for 4 days to varying concentrations of drug, and MTT assays were performed at the end of the fourth day. […] All assays were performed at least twice in 6 replicate wells.

The target in the next data set is T1, human topoisomerase I (Homo sapiens, UniProt P11387).
T1 construct: unnamed fusion partner (recombinant fusion protein, T7 expression system); made in house; host or cells: E. coli
T1 sequence (P11387 1-765): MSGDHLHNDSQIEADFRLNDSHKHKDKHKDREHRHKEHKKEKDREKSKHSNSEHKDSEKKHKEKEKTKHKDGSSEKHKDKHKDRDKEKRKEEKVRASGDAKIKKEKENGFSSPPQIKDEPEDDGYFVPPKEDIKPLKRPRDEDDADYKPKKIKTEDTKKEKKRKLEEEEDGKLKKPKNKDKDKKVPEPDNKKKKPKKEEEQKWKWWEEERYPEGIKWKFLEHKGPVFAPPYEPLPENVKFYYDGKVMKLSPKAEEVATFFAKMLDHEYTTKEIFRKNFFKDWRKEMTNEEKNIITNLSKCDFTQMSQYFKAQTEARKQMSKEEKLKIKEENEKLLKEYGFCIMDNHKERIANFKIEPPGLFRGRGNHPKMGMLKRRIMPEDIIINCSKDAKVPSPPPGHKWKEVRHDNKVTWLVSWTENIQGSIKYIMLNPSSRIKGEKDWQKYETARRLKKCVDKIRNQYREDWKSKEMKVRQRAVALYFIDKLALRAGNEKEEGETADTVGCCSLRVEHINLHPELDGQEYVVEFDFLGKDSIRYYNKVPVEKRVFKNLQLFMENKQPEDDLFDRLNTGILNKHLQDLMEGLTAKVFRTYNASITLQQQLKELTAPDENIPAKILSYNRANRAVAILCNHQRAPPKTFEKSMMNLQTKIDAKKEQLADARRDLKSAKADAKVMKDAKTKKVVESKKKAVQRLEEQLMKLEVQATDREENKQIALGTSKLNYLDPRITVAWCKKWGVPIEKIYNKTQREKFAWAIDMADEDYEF
In words: Test A: topoisomerase I-mediated DNA cleavage assay. In kind it is biochemical. Conditions: relative effective concentration, relative to topotecan = 1, producing the same cleavage of plasmid DNA in presence of human TOP1. From the text: Test A. Topoisomerase-Mediated DNA Cleavage Assays
Human topoisomerase I was expressed in E. Coli and isolated as a recombinant fusion protein using a T7 expression system as described by Gatto, B., et al., Cancer Res. 1996, 56, 2795–2800. Plasmid YepG was purified by the alkali lysis method followed by phenol deproteination and CsCl/ethidium isopycnic centrifugation method as described by Maniatis, T., et al., J. Molecular Cloning, a Laboratory Manual; Cold Spring Harbor Laboratory: Cold Spring Harbor, N.Y. 1982; pp 149–185. The end-labeling of the plasmid was accomplished by digestion with a restriction enzyme followed by end-filling with Klenow polymerase as previously described by Tewey, K. M., et al., Science 1984, 226, 466–468. The cleavage assays were performed as previously reported (see Gatto, B., et al., Cancer Res. 1996, 56, 2795–2800; and Wang, H., et al., Biochemistry 2001, 40; 3316–3323). The drug and the DNA in presence of topoisomerase I was incubated for 30 minutes at 37° C. The reactions were terminated by the addition of 5 μl of 5% SDS and 1 mg/ml […] with an additional 1 hour of incubation at 37° C. Samples were then alkali denatured by the addition of NaOH, EDTA, sucrose, and bromophenol blue to final concentrations of 75 mM, 2.5%, and 0.05 mg/ml, respectively, prior to loading onto a neutral agarose gel. After development of the gels, typically 24-hour exposure was used to obtain autoradiograms outlining the extent of DNA fragmentation.

A further data set relates to CPT-K5 cells. In words: Test B: MTT-microtiter plate tetrazolinium cytotoxicity assay, CPT-K5. Conditions: Homo sapiens, CPT-K5, 96 h, read-out: Cytotoxicity (IC50; μM) CPT-K5. In kind it is cell-based. The procedure:
as §1

The structures appear in SMILES notation. Where two headings read alike, the source gives them in different places.

A word on the IC50: it is the concentration at which inhibition is half-maximal. Take `CC[C@@]1(O)C(=O)OCc2c1cc1n(c2=O)Cc2cc3ccccc3nc2-1` [Camptothecin, reference compound]: in the data set with RPMI8402 cells (human lymphoblast RPMI8402, 4 days of continuous drug exposure, MTT), the IC50 was 0.005 µM. Further, the “TOP1-mediated DNA Cleavage (REC)” value on human topoisomerase I was determined as 0.5.

`CN(C)CCn1c(=O)c2ccccc2c2cnc3cc4c(cc3c21)OCO4` [Compound 3, 2,3-Methylenedioxy-5-[2-(N,N-dimethylamino)ethyl]-5H-dibenzo[c,h]1,6-naphthyridin-6-one, reference compound]: the IC50 in the data set on RPMI8402 cells (Homo sapiens) was 0.06 µM; in the data set with CPT-K5 cells, 0.95 µM. Further, the “TOP1-mediated DNA Cleavage (REC)” value at human topoisomerase I is reported as 6.

In the case of `COc1cc([C@@H]2c3cc4c(cc3[C@@H](O[C@@H]3O[C@@H]5CO[C@@H](c6cccs6)O[C@H]5[C@H](O)[C@H]3O)[C@H]3COC(=O)[C@H]23)OCO4)cc(OC)c1O` [VM-26, reference compound], the results for the IC50 in the data set with RPMI8402 cells (Homo sapiens) and in the data set with CPT-K5 cells were 0.22 µM and 0.28 µM, respectively. The “TOP1-mediated DNA Cleavage (REC)” value at human topoisomerase I was greater than 1000.

As usually defined, the melting point is the temperature of the solid-liquid transition. In turn, `CN(C)CCn1c(=O)c2cc(N)ccc2c2cnc3cc4c(cc3c21)OCO4` [Compound 4b, 8-Amino-2,3-methylenedioxy-5-[2-(N,N-dimethylamino)ethyl]-5H-dibenzo[c,h][1,6]naphthyridin-6-one] came in with a melting point of 245 to 246 °C. Also, in the data set with RPMI8402 cells (Homo sapiens), the IC50 was 0.08 µM. Moreover, the “TOP1-mediated DNA Cleavage (REC)” value on human topoisomerase I amounted to 8.0. The half-inhibitory concentration (IC50) with CPT-K5 cells is 0.38 µM.

Regarding `CN(C)CCn1c(=O)c2ccc([N+](=O)[O-])cc2c2cnc3cc4c(cc3c21)OCO4` [Compound 5a, 9-Nitro-2,3-methylenedioxy-5-[2-(N,N-Dimethylamino)Ethyl]-5H-dibenzo[c,h][1,6]naphthyridin-6-one], the melting point was in the range of 258 to 259 °C. Further, the IC50 in the data set with RPMI8402 cells (Homo sapiens) was 0.002 µM. The “TOP1-mediated DNA Cleavage (REC)” value on human topoisomerase I came out at 0.1. For the same molecule, in the data set on CPT-K5 cells, the IC50 is 2.8 µM.

`CN(C)CCn1c(=O)c2ccc(N)cc2c2cnc3cc4c(cc3c21)OCO4` [Compound 5b, 9-Amino-2,3-methylenedioxy-5-[2-(N,N-dimethylamino)ethyl]-5H-dibenzo[c,h][1,6]naphthyridin-6-one] gave a melting point of 300 to 301 °C. Besides, in the data set on RPMI8402 cells (Homo sapiens), the IC50 turned out to be 0.025 µM. Also, the “TOP1-mediated DNA Cleavage (REC)” value on human topoisomerase I is listed as 0.5. Further, the IC50 with CPT-K5 cells came to 1 µM.

As to `CC[C@@]1(O)C(=O)OCc2c1cc1n(c2=O)Cc2cc3c(CN(C)C)c(O)ccc3nc2-1` [Topotecan, reference compound], the figures for the IC50 in the data set with RPMI8402 cells (Homo sapiens) and with CPT-K5 cells were 0.012 µM and greater than 50 µM, respectively. Also, the “TOP1-mediated DNA Cleavage (REC)” value at human topoisomerase I is on record as 1.

`CN(C)CCn1c(=O)c2cccc([N+](=O)[O-])c2c2cnc3cc4c(cc3c21)OCO4` [Compound 6a, 10-Nitro-2,3-methylenedioxy-5-[2-(N,N-dimethylamino)Ethyl]-5H-dibenzo[c,h][1,6]naphthyridin-6-one] showed a melting point of 189 to 190 °C. Besides, in the data set on RPMI8402 cells (Homo sapiens), the IC50 worked out at 4.8 µM. Besides, on human topoisomerase I, the “TOP1-mediated DNA Cleavage (REC)” value worked out at 1000. In addition, the IC50 in the data set on CPT-K5 cells was greater than 10 µM.

In turn, `CN(C)CCn1c(=O)c2cccc(N)c2c2cnc3cc4c(cc3c21)OCO4` [Compound 6b, 10-Amino-2,3-methylenedioxy-5-[2-(N,N-dimethylamino)ethyl]-5H-dibenzo[c,h][1,6]naphthyridin-6-one] returned a melting point of 223 to 224 °C. Also, in the data set on RPMI8402 cells (Homo sapiens), the half-inhibitory concentration (IC50) turned out to be 0.34 µM. In addition, on human topoisomerase I, the “TOP1-mediated DNA Cleavage (REC)” value came out at 15. Also, the IC50 in the data set with CPT-K5 cells was 3.2 µM.

Regarding `CN(C)CCn1c(=O)c2cc([N+](=O)[O-])ccc2c2cnc3cc4c(cc3c21)OCO4` [Compound 4a, 8-Nitro-2,3-methylenedioxy-5-[2-(N,N-dimethylamino)ethyl]-5H-dibenzo[c,h][1,6]naphthyridin-6-one], the melting point lay in the range of 219 to 220 °C. Moreover, the IC50 with RPMI8402 cells (Homo sapiens) is 0.003 µM. The “TOP1-mediated DNA Cleavage (REC)” value on human topoisomerase I was found to be 0.2. Further, the IC50 in the data set with CPT-K5 cells worked out at 0.33 µM.
